Test results: US20100273750A1, “SEROTONIN RECEPTOR ANTAGONISTS FOR TREATING ARTHRITIS” (IMPERIAL INNOVATIONS LIMITED, priority 2007, published 2010)
Entries after “also recorded” stand apart in the source; their conditions may differ. Structures can show the parent of a compound that is named as a salt.

Tests used:
[1] = test system: TLR4 ligand LPS induced TNF; assay: LPS induced TNF production in primary human macrophages (ELISA); assay type: cell-based; conditions: 30 μg/ml, 30 minutes preincubation, 10 ng/ml LPS for 6 hours; hydrochloride
Protocol: (§1) Macrophages or RA synovial membrane cell cultures were stimulated with 10 ng/ml chloroform-extracted LPS, 10 ng/ml Pam3, 10 ng/ml Flagellin, 10 ng/ml Malp-2, 20 μg/ml poly IC, 2 μM CpG (human/mouse) or 1 μg/ml R-848 in complete media for 6 h. Supernatants from RA cultures were harvested after 24 hours. All reagents other than LPS were free from LPS contamination as assessed using the limulus amebocyte lysate (LAL) assay from Cambrex (USA).
(§2) Sandwich ELISAs were employed to measure TNF, (Pharmingen, UK). IP-10 (R&D, USA) and IL-1β (Bioscource. USA). Absorbance was read on a spectrophotometric ELISA plate reader (Labsystems Multiscan Biochromic) and analyzed using Ascent software V2.6 (Thermo Labsystems, Cambridge, United Kingdom). All results are expressed as the mean cytokine concentration±SD obtained from triplicate cultures per condition.
(§3) RA synovial membrane cells were isolated from patients undergoing joint replacement surgery as previously described (Foxwell et al., Proc. Natl. Acad. Sci. USA 95, 8211-8215, 1998). All patients gave written informed consent and the study was approved by the local ethics committee. Immediately after isolation, cells were used for mRNA analysis, stained by FACS or cultured at 1×10^5 cells/well in 96-well tissue culture plates (Falcon, UK) in RPMI 1640 containing 10% (v/v) FBS and 100 U/ml penicillin/streptomycin. Primary human synovial fibroblasts were cultured as described previously (Butler et al. Eur. Cytokine Netw. 5:441-8, 1994). Peripheral blood monocytes were isolated and cultured as previously described (Foxwell et al. Proc. Natl. Acad. Sci. USA 95, 8211-8215, 1998). Macrophages were derived from monocytes after differentiation for 4 days with 100 ng/ml M-CSF (PeproTech, UK). The mouse macrophage cell line RAW 264.7 was maintained in Dulbecco's modified Eagle's medium supplemented with 10% fetal bovine serum.
Primary human macrophages, murine RAW 264.7 cells and synovial fibroblasts were incubated with 30 μg/ml mianserine hydrochloride for 30 minutes and then stimulated for 6 hours with TLR ligands (R-848, Pam3, LPS, flagellin, malp-2, poly IC or CpG).

[2] = test system: TLR3 ligand poly IC induced IP-10; assay: Poly IC induced IP-10 production in human macrophages (ELISA); assay type: cell-based; conditions: 30 μg/ml, 20 μg/ml poly IC for 6 hours; hydrochloride
Protocol: as §1, §2, §3
Primary human macrophages were incubated with 5 μg/ml of GBR12909, 5 μg/ml of clotrimazole, 5 μg/ml of Propidium iodide (PI), 30 μg/ml mianserine hydrochloride and 30 μg/ml promazine hydrochloride for 30 minutes and then stimulated for 6 hours with the TLR4 ligand LPS (FIG. 7A), with R848 a TLR7/8 ligand (FIG. 7, Graph B), or with poly IC a TLR3 ligand (FIG. 7C). Supernatants were collected and measured for TNF or IP-10.

[3] = test system: RA synovial membrane cultures; assay: Spontaneous cytokine release from RA synovial membrane cultures (ELISA); assay type: cell-based, human; conditions: 24 hours
[4] = test system: TLR9 ligand CpG induced TNF; assay: CpG induced TNF production in murine RAW 264.7 macrophages (ELISA); assay type: cell-based; conditions: 30 μg/ml, 30 minutes preincubation, CpG for 6 hours, RAW 264.7, n=2
Protocol: as §1, §2
(§4) RA synovial membrane cells were isolated from patients undergoing joint replacement surgery as previously described (Foxwell et al., Proc. Natl. Acad. Sci. USA 95, 8211-8215, 1998). All patients gave written informed consent and the study was approved by the local ethics committee. Immediately after isolation, cells were used for mRNA analysis, stained by FACS or cultured at 1×10^5 cells/well in 96-well tissue culture plates (Falcon, UK) in RPMI 1640 containing 10% (v/v) FBS and 100 U/ml penicillin/streptomycin. […]

[5] = test system: CIA model of rheumatoid arthritis; assay: Murine CIA model of rheumatoid arthritis; assay type: in vivo, Male DBA mice
Protocol: Male DBA mice (8-10 weeks of age) were immunized at the base of the tail intradermally with 200 μg type II collagen emulsified in CFA (Difco Laboratories, West Molesey, U.K.). The onset of arthritis was considered to be the day that erythema and/or swelling were first observed, and arthritic mice were given a daily clinical score per limb from 0 to 3, with 0=normal, 1=slight erythema and swelling, 2=pronounced edematous swelling and 3=joint deformity with ankylosis, resulting in a maximum score of 12 per animal. Mianserine treatment started on the day of onset and was administered daily for 7 days. Paw swelling was assessed by measuring hind paw thickness using calipers.
The experiment was started at the onset of arthritis (day 1). Mice were given an interperitoneal injection of vehicle (PBS), 4 mg/kg or 10 mg/kg of mianserine hydrochloride once a day for 7 days. Mice were assessed for (FIG. 2A) clinical score and (FIG. 2B) paw swelling on a daily basis.

[6] = test system: TLR3 induced NF-κB activation; assay: NF-κB luciferase reporter assay in synovial fibroblasts stimulated with poly IC; assay type: cell-based, human; conditions: 30 μg/ml, 30 minutes preincubation, 20 μg/ml Poly IC for 6 h, n=3
Protocol: (§5) Synovial fibroblasts were cultured in a 96-well plate, infected with recombinant adenovirus containing a NF-κB Luciferase reporter gene at a MOI of 200:1. The cells were allowed to rest for 24 h prior to stimulation. Cells were preincubated with 30 μg/ml mianserine hydrochloride for 30 minutes, then stimulated with 10 ng/ml LPS or 20 μg/ml Poly IC for 6 h. The cells were then washed once in PBS and lysed with 100 μl of CAT lysis buffer (0.65% (v/v) of Nonidet P-40, 10 mM Tris-HCl pH 8, 0.1 mM EDTA pH 8, 150 mM NaCl). 50 μl of cell lysate were mixed with 120 μl luciferase assay buffer (25 mM Tris-phosphate pH 7.8, 8 mM MgCl2, 1 mM EDTA, 1% (v/v) Triton X-100, 1% (v/v) glycerol, 1 mM DTT, 0.5 mM ATP) in the well of a luminometer cuvette strip. Luciferase activity was measured with a Luminometer (Thermo Labsystems, U.K.) by adding […] of luciferin (Bright-Glo luciferase assay system; Promega, Madison, Wis.) per assay point.
(§6) RA synovial membrane cells were isolated from patients undergoing joint replacement surgery as previously described (Foxwell et al., Proc. Natl. Acad. Sci. USA 95, 8211-8215, 1998). All patients gave written informed consent and the study was approved by the local ethics committee. […]

[7] = test system: TLR ligands Pam3, flagellin, Malp-2 induced TNF; assay: Pam3, flagellin or Malp-2 induced TNF production in primary human macrophages (ELISA); assay type: cell-based; conditions: 30 μg/ml, 30 minutes preincubation
Protocol: as §1, §2, §4

[8] = test system: TLR7/8 ligand R-848 induced TNF; assay: R-848 induced TNF production in primary human macrophages (ELISA)
[9] = test system: RA synovial membrane cultures; assay: Spontaneous cytokine release from RA synovial membrane cultures (ELISA); assay type: cell-based, human
Protocol: as §1, with “hours.” for “hours. All reagents other than LPS were free from LPS contamination as assessed using the limulus amebocyte lysate (LAL) assay from Cambrex (USA).”
as §2, §3
Rheumatoid arthritis synovial membrane cells were cultured for 24 hours in the presence of media alone or media containing 30 μg/ml mianserine hydrochloride. Supernatants were harvested and levels of cytokines (A) TNF (n=16) were measured by ELISA. […] A students paired t-test was used to analyse the data.

[10] = test system: LPS induced NF-κB activation (TLR4); assay: NF-κB luciferase reporter assay in synovial fibroblasts stimulated with LPS; assay type: cell-based, human; conditions: 30 μg/ml, 30 minutes preincubation, 10 ng/ml LPS for 6 h, n=3
Protocol: as §5, §6

[11] = 4 mg/kg interperitoneal once a day for 7 days
[12] = 10 mg/kg interperitoneal once a day for 7 days

**Q.** For `CN1CCN2c3ccccc3Cc3ccccc3C2C1` (stereo not shown) [mianserine hydrochloride], which “inhibition of LPS induced TNF production” value [1] is on record?
**A.** The value was “not and None of the drugs tested were able to inhibit”.

**Q.** What about the “inhibition of Poly IC induced IP-10 production” value [2] of the same compound?
**A.** The value was “inhibits TLR3 induced signalling; also recorded: able to inhibit”.

**Q.** And the “inhibition of spontaneous TNF production” value ([3]; 20 μg/ml)?
**A.** The value was “able to inhibit”.

**Q.** What about the “decrease of TNF levels (positive control)” value [3] of the same compound?
**A.** The value was “able to decrease the TNF levels”.

**Q.** And the “inhibition of CpG induced TNF production” value [4]?
**A.** The value was “able to inhibit TNF production”.

**Q.** And the clinical score [5, 11]?
**A.** The clinical score was “did not produce as great an effect as the 10 mg/kg group”.

**Q.** What about the hind paw swelling [5, 11] of the same compound?
**A.** The hind paw swelling was “no significant improvement”.

**Q.** What about the histology scoring [5, 11] of the same compound?
**A.** Its histology scoring is “an improvement in the score”.

**Q.** What about the hind paw swelling [5, 12] of the same compound?
**A.** The hind paw swelling was “significant improvement throughout the study”.

**Q.** And the histology scoring [5, 12]?
**A.** Its histology scoring is “significant effect”.

**Q.** And the “histology of hind paws: bone destruction and cell infiltration” value ([5]; interperitoneal once a day for 7 days)?
**A.** Its value is “clear reduction in both bone destruction and cell infiltration into the joint”.

**Q.** What about the clinical score ([5]; interperitoneal once a day for 7 days from onset, statistics for 10 mg/kg group versus vehicle, n=7) of the same compound?
**A.** The clinical score was “significant improvement to the control group from day 3 onwards”.

**Q.** What about the “inhibition of TLR3 induced NF-κB activation” value [6] of the same compound?
**A.** The value was “significantly inhibit”.

**Q.** And the “decreased production of TNF in response to Malp-2” value ([7]; Malp-2 for 6 hours)?
**A.** The value was “not”.

**Q.** What about the “decreased production of TNF in response to flagellin” value ([7]; flagellin for 6 hours) of the same compound?
**A.** Its value is “not”.

**Q.** And the “inhibitory effect on TNF production at rising R-848” value ([8]; 5 μg/ml with 0.3, 1, 10 or 20 μg/ml R-848, 6 hours)?
**A.** Its value is “diminished with increasing concentrations of R-848”.

**Q.** And the “inhibition of R-848 induced TNF production” value ([8]; 30 μg/ml, 30 minutes preincubation, 1 μg/ml R-848 for 6 hours, hydrochloride)?
**A.** The value was “decreased production of TNF; also recorded: able to suppress”.

**Q.** And the “mode of inhibition of R-848 induced TNF production” value ([8]; 2.5, 5 or 10 μg/ml with 0.3, 1, 10 or 20 μg/ml R-848, 6 hours, three donors)?
**A.** The value was “competitively inhibits”.

**Q.** What about the “inhibition of TNF, dose dependence” value ([9]; 10 μg/ml, 20 μg/ml and 30 μg/ml) of the same compound?
**A.** The value was “dose dependently inhibited”.

**Q.** What about the “inhibition of spontaneous TNF production” value ([9]; 30 μg/ml, 24 hours) of the same compound?
**A.** The value was “able to inhibit”.

**Q.** What about the “decrease in the levels of TNF” value ([9]; 30 μg/ml, 24 hours, n=16, p=0.0007) of the same compound?
**A.** The value was 59%±13.

**Q.** And the “effect on LPS induced NF-κB activation” value [10]?
**A.** Its value is “no effect”.
